Reference: ChEMBL document CHEMBL1201862, “PubChem BioAssay data set” (2004)
Calls of active or inactive are those of the source.

Assays:
BJ [1] = assay: BJ-TERT-LT-ST fibroblast viability loss – cell-based, RAS-independent, luminescence, dose response (AID 1935); format: functional; details: Homo sapiens;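 also: BJ fibroblasts immortalized with TERT plus LT and ST oncogenes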
BJ [2] = assay: BJ-TERT fibroblast viability loss – cell-based, RAS-independent, luminescence, dose response (AID 1933); format: functional; details: Homo sapiens
[3] = Luminescent dose response cell-based high throughput screening assay for inhibitors of the Janus kinase 2 mutant JAK2V617F. [Related pubchem assays: 1446 (Primary screen.), 1521 (Confirmation assay.), 1486 (Counter screen.)]; format: functional
BJ [4] = assay: growth inhibition of engineered Ras-driven BJ cells – cell-based, alamar blue fluorescence, cherrypicked samples, dose response (AID 2631); format: functional; details: Homo sapiens;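 also: confirmatory dose-response assay in RAS-dependent BJ fibroblasts engineered with TERT, LT and ST, with cytotoxicity read by fluorescence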
[5] = biological target: T1, Replicative DNA helicase DnaB (Mycobacterium tuberculosis, UniProt P9WMR3); assay: DnaB intein splicing inhibitors, dose response, biochemical, cell-free fluorescence (AID 449749); format: functional
T1 sequence (P9WMR3 whole entry): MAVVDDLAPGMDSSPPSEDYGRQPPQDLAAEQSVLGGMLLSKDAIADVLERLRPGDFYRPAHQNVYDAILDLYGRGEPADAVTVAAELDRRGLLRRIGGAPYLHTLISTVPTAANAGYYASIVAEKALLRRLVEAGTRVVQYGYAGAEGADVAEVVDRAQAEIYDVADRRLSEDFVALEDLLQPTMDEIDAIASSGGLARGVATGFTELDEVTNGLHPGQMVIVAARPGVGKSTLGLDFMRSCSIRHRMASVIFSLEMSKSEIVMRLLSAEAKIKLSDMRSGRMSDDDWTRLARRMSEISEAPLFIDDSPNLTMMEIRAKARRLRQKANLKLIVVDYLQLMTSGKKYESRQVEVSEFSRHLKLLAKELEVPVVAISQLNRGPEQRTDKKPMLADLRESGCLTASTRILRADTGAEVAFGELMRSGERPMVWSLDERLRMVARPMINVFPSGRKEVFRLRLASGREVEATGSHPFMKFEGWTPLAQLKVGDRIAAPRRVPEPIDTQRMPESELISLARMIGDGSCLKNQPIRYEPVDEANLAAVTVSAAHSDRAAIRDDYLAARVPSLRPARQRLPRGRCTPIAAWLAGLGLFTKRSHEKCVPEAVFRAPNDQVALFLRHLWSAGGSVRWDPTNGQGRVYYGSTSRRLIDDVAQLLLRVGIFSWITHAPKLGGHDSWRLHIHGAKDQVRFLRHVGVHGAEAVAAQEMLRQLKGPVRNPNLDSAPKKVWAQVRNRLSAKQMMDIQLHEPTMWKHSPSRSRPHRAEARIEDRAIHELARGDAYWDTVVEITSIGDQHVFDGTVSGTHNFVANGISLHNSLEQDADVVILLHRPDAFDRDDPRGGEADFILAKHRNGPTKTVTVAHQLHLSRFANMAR

Protein RecA = biological target: T2, Protein RecA (Mycobacterium tuberculosis, UniProt P9WHJ3); assay: Fluorescence Cell-Free Homogeneous Dose Retest to Identify Inhibitors of RecA-Intein Splicing Activity. [Related pubchem assays (depositor defined):AID2097, AID2223, AID489010, AID492950]; format: functional
T2 sequence (P9WHJ3 whole entry): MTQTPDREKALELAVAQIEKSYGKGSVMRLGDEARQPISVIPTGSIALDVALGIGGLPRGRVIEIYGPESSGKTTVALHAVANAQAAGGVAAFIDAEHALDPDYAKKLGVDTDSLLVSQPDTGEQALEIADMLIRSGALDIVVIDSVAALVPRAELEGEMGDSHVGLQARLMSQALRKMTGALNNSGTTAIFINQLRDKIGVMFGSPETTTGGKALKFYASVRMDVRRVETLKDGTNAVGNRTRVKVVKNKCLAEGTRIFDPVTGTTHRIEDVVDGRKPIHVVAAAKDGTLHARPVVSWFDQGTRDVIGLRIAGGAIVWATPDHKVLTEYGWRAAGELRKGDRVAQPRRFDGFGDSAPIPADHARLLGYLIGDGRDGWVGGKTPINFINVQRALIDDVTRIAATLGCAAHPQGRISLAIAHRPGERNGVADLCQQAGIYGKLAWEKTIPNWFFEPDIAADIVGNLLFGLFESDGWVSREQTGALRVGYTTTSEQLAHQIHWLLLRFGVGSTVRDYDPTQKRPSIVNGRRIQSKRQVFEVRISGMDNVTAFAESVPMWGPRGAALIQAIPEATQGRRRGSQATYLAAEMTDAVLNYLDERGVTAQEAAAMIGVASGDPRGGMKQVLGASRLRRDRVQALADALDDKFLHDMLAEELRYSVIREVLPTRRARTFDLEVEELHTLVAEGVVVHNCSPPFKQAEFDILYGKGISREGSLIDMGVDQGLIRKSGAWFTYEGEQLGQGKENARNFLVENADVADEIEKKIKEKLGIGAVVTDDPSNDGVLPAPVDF

BJ [6] = assay: cells; format: functional, cell-based; details: Homo sapiens
Paired box protein Pax-8 = Paired box protein Pax-8 (Homo sapiens, UniProt Q06710); assay: PAX8 transcriptional activity inhibition in RMG-I – RMG-I cells, luciferase, cherry-pick, dose response (AID 687027); format: functional, cell-based;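 also: luciferase reporter driven by Pax8 target thyroperoxidase promoter measured by SteadyGlo luminescence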
Paired box protein Pax-8, sequence (Q06710 whole entry): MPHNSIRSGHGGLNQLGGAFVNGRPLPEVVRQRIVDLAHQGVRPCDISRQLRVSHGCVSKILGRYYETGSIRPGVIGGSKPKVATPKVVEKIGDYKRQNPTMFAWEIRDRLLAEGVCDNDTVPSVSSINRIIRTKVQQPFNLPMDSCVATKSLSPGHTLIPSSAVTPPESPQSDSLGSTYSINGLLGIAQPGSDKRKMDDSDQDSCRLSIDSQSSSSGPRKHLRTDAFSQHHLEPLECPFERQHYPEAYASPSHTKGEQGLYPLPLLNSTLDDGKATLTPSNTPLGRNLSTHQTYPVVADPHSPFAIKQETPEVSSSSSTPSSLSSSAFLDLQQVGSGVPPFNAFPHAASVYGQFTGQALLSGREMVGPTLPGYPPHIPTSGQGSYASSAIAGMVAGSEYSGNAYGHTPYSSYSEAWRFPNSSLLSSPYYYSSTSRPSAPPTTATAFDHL

[7] = biological target: T3, Microphthalmia-associated transcription factor (Homo sapiens, UniProt O75030); assay: reducers of TRPM1 reporter luminescence, concentration series – cell-based, SK-MEL-5, cherry-picked, set 3, MITF inhibitor project, dose response (AID 493073); format: functional;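 also: SK-MEL-5 melanoma cells with luciferase driven by the MITF target TRPM1 promoter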
T3 sequence (O75030 whole entry): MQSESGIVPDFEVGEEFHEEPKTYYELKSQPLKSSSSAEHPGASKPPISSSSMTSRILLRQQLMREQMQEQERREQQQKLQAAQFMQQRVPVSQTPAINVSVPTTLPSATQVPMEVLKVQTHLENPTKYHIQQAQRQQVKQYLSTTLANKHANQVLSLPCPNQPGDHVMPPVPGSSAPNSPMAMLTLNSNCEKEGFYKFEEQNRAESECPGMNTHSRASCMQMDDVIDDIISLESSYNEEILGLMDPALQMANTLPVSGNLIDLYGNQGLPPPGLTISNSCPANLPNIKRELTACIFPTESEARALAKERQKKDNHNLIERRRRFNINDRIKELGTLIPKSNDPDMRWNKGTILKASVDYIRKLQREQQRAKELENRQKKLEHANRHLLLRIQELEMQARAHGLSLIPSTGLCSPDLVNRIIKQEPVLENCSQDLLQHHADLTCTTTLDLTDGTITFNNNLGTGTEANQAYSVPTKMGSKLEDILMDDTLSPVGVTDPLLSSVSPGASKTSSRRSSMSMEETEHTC

[8] = general cell-killing toxicity readout – plate reader, dry powder samples, cytotoxicity control for PAX8 inhibitor project, dose response (AID 743021); format: functional, cell-based
[9] = DRD fibroblast viability loss – cell-based, non-viral oncogenic, luminescence, dose response (AID 1934); format: functional; details: Homo sapiens
Estrogen receptor = biological target: T4, Estrogen receptor (Homo sapiens, UniProt P03372);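 also: potency for inhibiting coactivator peptide recruitment to the receptor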
T4 sequence (P03372 whole entry): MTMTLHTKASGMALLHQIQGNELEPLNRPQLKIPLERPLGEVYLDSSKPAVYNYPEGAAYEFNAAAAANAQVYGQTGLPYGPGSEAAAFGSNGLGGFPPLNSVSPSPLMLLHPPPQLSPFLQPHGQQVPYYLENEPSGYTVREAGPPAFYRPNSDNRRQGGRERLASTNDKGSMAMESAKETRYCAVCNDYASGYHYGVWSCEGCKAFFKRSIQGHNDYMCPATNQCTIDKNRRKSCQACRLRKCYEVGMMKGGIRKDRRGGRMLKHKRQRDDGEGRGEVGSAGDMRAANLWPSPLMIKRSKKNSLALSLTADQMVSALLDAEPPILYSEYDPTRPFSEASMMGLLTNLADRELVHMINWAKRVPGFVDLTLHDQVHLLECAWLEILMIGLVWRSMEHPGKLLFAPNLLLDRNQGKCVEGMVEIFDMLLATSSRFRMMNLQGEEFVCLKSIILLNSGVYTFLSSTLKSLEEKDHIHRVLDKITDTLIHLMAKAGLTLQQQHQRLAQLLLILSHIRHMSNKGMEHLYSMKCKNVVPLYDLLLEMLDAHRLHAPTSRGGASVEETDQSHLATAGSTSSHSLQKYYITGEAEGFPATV

Estrogen receptor beta = Estrogen receptor beta (Homo sapiens, UniProt Q92731);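 also: recombinant ER-beta bound to coactivator SRC1 peptide in presence of estradiol agonist; inhibitors block coactivator peptide binding and lower the FRET signal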
Estrogen receptor beta, sequence (Q92731 whole entry): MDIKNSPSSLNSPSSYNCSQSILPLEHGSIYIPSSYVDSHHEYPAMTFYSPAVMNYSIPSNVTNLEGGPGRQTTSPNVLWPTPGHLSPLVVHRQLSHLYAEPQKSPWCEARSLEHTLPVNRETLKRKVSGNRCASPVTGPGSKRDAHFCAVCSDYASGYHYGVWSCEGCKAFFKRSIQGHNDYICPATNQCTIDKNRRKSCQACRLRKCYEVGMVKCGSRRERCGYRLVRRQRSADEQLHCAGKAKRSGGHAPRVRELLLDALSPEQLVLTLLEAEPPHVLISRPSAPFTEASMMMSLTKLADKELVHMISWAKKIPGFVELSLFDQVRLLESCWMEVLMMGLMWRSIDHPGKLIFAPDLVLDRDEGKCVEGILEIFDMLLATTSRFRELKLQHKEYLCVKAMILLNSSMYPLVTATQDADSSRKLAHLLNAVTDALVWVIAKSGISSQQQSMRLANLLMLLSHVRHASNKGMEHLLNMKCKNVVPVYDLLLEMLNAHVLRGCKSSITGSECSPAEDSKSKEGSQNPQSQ

Cytochrome P450 1A2 = biological target: T5, Cytochrome P450 1A2 (Homo sapiens, UniProt P05177);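 also: PubChem cytochrome P450 panel assay, CYP1A2 panel member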
T5 sequence (P05177 whole entry): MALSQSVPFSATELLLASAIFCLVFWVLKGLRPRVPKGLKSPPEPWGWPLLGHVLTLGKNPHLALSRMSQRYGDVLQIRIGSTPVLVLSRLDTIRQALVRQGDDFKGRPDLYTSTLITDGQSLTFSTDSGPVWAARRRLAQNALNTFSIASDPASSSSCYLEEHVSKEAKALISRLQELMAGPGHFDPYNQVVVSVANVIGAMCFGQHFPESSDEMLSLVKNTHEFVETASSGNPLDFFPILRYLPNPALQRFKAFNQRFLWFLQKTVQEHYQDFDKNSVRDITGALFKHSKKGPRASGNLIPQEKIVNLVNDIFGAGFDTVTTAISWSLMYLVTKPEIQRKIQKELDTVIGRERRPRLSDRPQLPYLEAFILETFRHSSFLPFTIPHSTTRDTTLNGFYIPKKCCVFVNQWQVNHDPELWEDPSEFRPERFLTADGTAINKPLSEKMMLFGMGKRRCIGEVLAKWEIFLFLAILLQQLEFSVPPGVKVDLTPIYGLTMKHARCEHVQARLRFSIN

Ephrin type-A receptor 4 = Ephrin type-A receptor 4 (Mus musculus, UniProt Q03137); assay: EphA4 ligand-binding antagonists – biochemical, colorimetric, mouse EphA4, primary screen (AID 689); format: functional
Ephrin type-A receptor 4, sequence (Q03137 whole entry): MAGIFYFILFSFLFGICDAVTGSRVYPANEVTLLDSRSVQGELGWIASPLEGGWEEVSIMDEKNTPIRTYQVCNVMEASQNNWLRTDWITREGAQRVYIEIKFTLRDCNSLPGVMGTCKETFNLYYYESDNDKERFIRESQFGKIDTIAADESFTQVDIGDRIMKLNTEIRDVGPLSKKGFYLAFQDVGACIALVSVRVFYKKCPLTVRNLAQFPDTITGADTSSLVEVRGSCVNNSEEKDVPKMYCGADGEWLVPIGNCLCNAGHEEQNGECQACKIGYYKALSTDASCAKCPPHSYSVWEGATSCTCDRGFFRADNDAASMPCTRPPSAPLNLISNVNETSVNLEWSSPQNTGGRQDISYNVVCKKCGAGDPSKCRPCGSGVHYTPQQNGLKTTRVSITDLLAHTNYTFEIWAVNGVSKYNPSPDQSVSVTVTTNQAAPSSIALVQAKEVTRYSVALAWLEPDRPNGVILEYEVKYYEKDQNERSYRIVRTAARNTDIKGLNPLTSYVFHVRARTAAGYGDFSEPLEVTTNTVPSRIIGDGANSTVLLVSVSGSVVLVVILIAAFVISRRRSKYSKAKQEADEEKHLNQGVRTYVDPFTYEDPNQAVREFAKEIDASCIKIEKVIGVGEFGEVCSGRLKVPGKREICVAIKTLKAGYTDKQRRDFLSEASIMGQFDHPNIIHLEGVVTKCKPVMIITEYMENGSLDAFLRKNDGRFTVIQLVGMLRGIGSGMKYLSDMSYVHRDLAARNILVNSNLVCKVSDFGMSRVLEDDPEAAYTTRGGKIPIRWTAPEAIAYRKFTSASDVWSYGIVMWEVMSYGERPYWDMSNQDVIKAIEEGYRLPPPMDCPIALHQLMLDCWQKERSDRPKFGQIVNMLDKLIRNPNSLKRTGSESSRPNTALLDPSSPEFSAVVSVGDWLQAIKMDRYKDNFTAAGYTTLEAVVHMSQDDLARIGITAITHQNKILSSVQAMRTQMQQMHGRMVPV

SMILES: COc1ccccc1N(C(=O)CCl)c1cn(C(C)=O)c2ccccc12
- EC50 (BJ [1]): > 150 µM (inconclusive)
- EC50 (BJ [2]): 5.21 µM (inconclusive)
- IC50 [3]: 1.2 µM (active)
- EC50 (BJ [4]): 1.52 µM (active)
- AC50 [5]: 12.8 µM (active)
- EC50 (Protein RecA): 0.846 µM (active)
- EC50 (BJ [6]): 5.64 µM (active)
- AC50 (Paired box protein Pax-8): 1.56 µM (active)
- AC50 [7]: 8.82 µM (active)
- AC50 [8]: 3.66 µM (active)
- EC50 [9]: 3.11 µM (active)

SMILES: Cn1nc([N+](=O)[O-])c2c(-c3nc4ccccc4s3)c(N)n(C3CCCCC3)c2c1=O
- IC50 (Estrogen receptor): 4.98 µM (active)
- IC50 (Estrogen receptor beta): 6.01 µM (active)

SMILES: Brc1ccc(-c2nnc(-c3cccc(Br)c3)o2)cc1
- AC50 (Cytochrome P450 1A2): 0.316 µM (inconclusive)
- IC50 (Ephrin type-A receptor 4): > 100 µM (not active)
